Measurements from patent publication US4728732A, “C-3'acylsulfonamido cephalosporin analogs” (American Home Products Corporation, priority 1985, dated 1988).
In brackets after ≈: the same amount, converted by molar mass.

How the values were obtained:
Type in all cases: cell-based
[1] = test system: Escherichia coli ATCC 25922; assay: MIC, procedure B (agar, Steers replicating device); details: ATCC25922
Procedure: (§1) The compounds of the invention are tested for their antibacterial activity. The test can be carried out in two ways:
(§2) B. The organisms used in the test comprise the following:
(§3) Staphylococcus aureus (penicillin-sensitive and resistant), Pseudomonas aeruginosa, Escherichia coli, […] pneumoniae, Bordetella bronchiseptica, Proteus vulgaris, P. mirabilis, Acinetobacter calcoaceticus.
(§4) Test organisms may be added or deleted in order to reflect current clinical patterns of antibiotic susceptibility or shifts in pathogenic potential.
(§5) Organisms are normally grown for 18 hours in Brain Heart Infusion at 35° C. Cultures are adjusted with saline to MacFarland No. 1.5 standard prior to use.
(§6) Stock concentrations (e.g […] or units per ml) are prepared in a suitable vehicle. Two-fold dilutions are made. One ml quantities of each dilution are incorporated in 9 ml of the appropriate agar (e.g. Seed) in sterile Petri plates. The hardened surface is inoculated with test organisms by use of a Steers replicating device. The plates are incubated (e.g. 18 hours at 35° C.) and activity is determined.

[2] = test system: Serratia marcescens ATCC 13880; assay: MIC, procedure B (agar, Steers replicating device); details: ATCC13880
Procedure: as §1, §2, §3, §4, §5, §6

[3] = test system: Klebsiella pneunomiae KL-1; assay: MIC, procedure B (agar, Steers replicating device); details: KL1
Procedure: as §1, §2, §3, §4, §5, §6

[4] = test system: Staphylococcus aureus ATCC 29213; assay: MIC, procedure B (agar, Steers replicating device); details: ATCC29213
Procedure: as §1, §2, §3, §4, §5, §6

[5] = test system: Enterobacter cloacae ATCC 13047; assay: MIC, procedure B (agar, Steers replicating device); details: ATCC13047
Procedure: as §1, §2, §3, §4, §5, §6

[6] = test system: Pseudomonas aeruginosa ATCC 27853; assay: MIC, procedure B (agar, Steers replicating device); details: ATCC27853
Procedure: as §1, §2, §3, §4, §5, §6

[7] = test system: Proteus vulgaris A 84354 1; assay: MIC, procedure B (agar, Steers replicating device); details: A843541
Procedure: as §1, §2, §3, §4, §5, §6

[8] = test system: Streptococcus faecalis ATCC 29212; assay: MIC, procedure B (agar, Steers replicating device); details: Enterococcus faecalis, ATCC29212
Procedure: as §1, §2, §3, §4, §5, §6

[9] = test system: Escherichia coli ATCC 25922; assay: MIC, procedure A (two-fold dilutions in broth, Microtiter plate); details: ATCC25922
Procedure: as §1
(§7) A. The organisms used in the test comprise the following:
as §3, §4
(§8) Stock solution of appropriate medium (e.g. Mueller-Hinton Broth) is sterilized. Starting at a predetermined concentration (e.g. 250 μg/ml), two-fold dilutions are made with the Dynatech Automatic Diluter in a Microtiter plate of 8 rows of 12 wells each in which 11 wells in each row contain 50 μl of medium (e.g. Mueller-Hinton Broth) and the 12th well contains in 100 μl an aliquot of the compound to be tested. The diluted plates are inoculated using the Dynatech Automatic Inoculator which delivers the final inoculum (e.g. 10^5 cfu/ml of a seven-hour culture which has been incubated at 35° C.).
(§9) Plates are sealed with tape and incubated (e.g. 18 hours at 35° C.).

[10] = test system: Serratia marcescens ATCC 13880; assay: as above; details: ATCC13880
Procedure: as §1, §7, §3, §4, §8, §9

[11] = test system: Klebsiella pneunomiae KL-1; assay: as above; details: KL1
Procedure: as §1, §7, §3, §4, §8, §9

[12] = test system: Staphylococcus aureus ATCC 29213; assay: as above; details: ATCC29213
Procedure: as §1, §7, §3, §4, §8, §9

[13] = test system: Enterobacter cloacae ATCC 13047; assay: as above; details: ATCC13047
Procedure: as §1, §7, §3, §4, §8, §9

[14] = test system: Pseudomonas aeruginosa ATCC 27853; assay: as above; details: ATCC27853
Procedure: as §1, §7, §3, §4, §8, §9

[15] = test system: Proteus vulgaris A 84354 1; assay: as above; details: A843541
Procedure: as §1, §7, §3, §4, §8, §9

[16] = test system: Streptococcus faecalis ATCC 29212; assay: as above; details: Enterococcus faecalis, ATCC29212
Procedure: as §1, §7, §3, §4, §8, §9

SMILES	MIC [1]	MIC [2]	MIC [3]	MIC [4]	MIC [5]	MIC [6]	MIC [7]	MIC [8]	MIC [9]	MIC [10]	MIC [11]	MIC [12]	MIC [13]	MIC [14]	MIC [15]	MIC [16]
CO/N=C(\C(=O)N[C@@H]1C(=O)N2C(C(=O)O)=C(CN3C(=O)c4cccnc4S3(=O)=O)CS[C@H]12)c1csc(N)n1 [3 C.]	2 µg/mL (≈ 3.45 µM)	2 µg/mL (≈ 3.45 µM)	1 µg/mL (≈ 1.73 µM)	32 µg/mL (≈ 55.2 µM)	16 µg/mL (≈ 27.6 µM)	128 µg/mL (≈ 221 µM)	2 µg/mL (≈ 3.45 µM)	128 µg/mL (≈ 221 µM)								
CO/N=C(\C(=O)N[C@@H]1C(=O)N2C(C(=O)O)=C(CN3C(=O)c4cscc4S3(=O)=O)CS[C@H]12)c1csc(N)n1 [1 C.]	2 µg/mL (≈ 3.42 µM)	2 µg/mL (≈ 3.42 µM)	1 µg/mL (≈ 1.71 µM)	4 µg/mL (≈ 6.84 µM)	4 µg/mL (≈ 6.84 µM)	64 µg/mL (≈ 109 µM)	0.5 µg/mL (≈ 0.855 µM)	8 µg/mL (≈ 13.7 µM)								
CO/N=C(\C(=O)N[C@@H]1C(=O)N2C(C(=O)O)=C(CN3C(=O)c4ccccc4S3(=O)=O)CS[C@H]12)c1csc(N)n1 [2 C.]	1 µg/mL (≈ 1.73 µM)	4 µg/mL (≈ 6.91 µM)	0.5 µg/mL (≈ 0.864 µM)	4 µg/mL (≈ 6.91 µM)	8 µg/mL (≈ 13.8 µM)	32 µg/mL (≈ 55.3 µM)	0.5 µg/mL (≈ 0.864 µM)	8 µg/mL (≈ 13.8 µM)								
CO/N=C(\C(=O)N[C@@H]1C(=O)N2C(C(=O)OC(C)(C)C)=C(CN3C(=O)c4cccnc4S3(=O)=O)CS[C@H]12)c1csc(N)n1 [3 B.]									4 µg/mL (≈ 6.29 µM)	8 µg/mL (≈ 12.6 µM)	2 µg/mL (≈ 3.15 µM)	128 µg/mL (≈ 201 µM)	128 µg/mL (≈ 201 µM)	256 µg/mL (≈ 403 µM)	8 µg/mL (≈ 12.6 µM)	256 µg/mL (≈ 403 µM)

More lines, now with the values ahead:

MIC [1]	MIC [2]	MIC [3]	MIC [4]	MIC [5]	MIC [6]	MIC [7]	MIC [8]	MIC [9]	MIC [10]	MIC [11]	MIC [12]	MIC [13]	MIC [14]	MIC [15]	MIC [16]	SMILES
								8 µg/mL (≈ 12.5 µM)	32 µg/mL (≈ 49.9 µM)	4 µg/mL (≈ 6.24 µM)	32 µg/mL (≈ 49.9 µM)	64 µg/mL (≈ 99.9 µM)	128 µg/mL (≈ 200 µM)	4 µg/mL (≈ 6.24 µM)	256 µg/mL (≈ 400 µM)	CO/N=C(\C(=O)N[C@@H]1C(=O)N2C(C(=O)OC(C)(C)C)=C(CN3C(=O)c4cscc4S3(=O)=O)CS[C@H]12)c1csc(N)n1 [1 B.]
								2 µg/mL (≈ 3.15 µM)	8 µg/mL (≈ 12.6 µM)	1 µg/mL (≈ 1.58 µM)	8 µg/mL (≈ 12.6 µM)	16 µg/mL (≈ 25.2 µM)	64 µg/mL (≈ 101 µM)	1 µg/mL (≈ 1.58 µM)	16 µg/mL (≈ 25.2 µM)	CO/N=C(\C(=O)N[C@@H]1C(=O)N2C(C(=O)OC(C)(C)C)=C(CN3C(=O)c4ccccc4S3(=O)=O)CS[C@H]12)c1csc(N)n1 [2 B.]
